Where two headings read alike, the source gives them in different places.
Columns and labels:
[1] = test system: LNCaP prostate cancer cells; test: Growth inhibition by MTT staining, LNCaP; format: cell-based, Human; details: 96 h
Description: (§1) Growth inhibitory effects of PCNA-I1 and PCNA-I2 were assessed in human cancer cell lines, mouse cancer cell lines, immortalized mouse cell lines, and human primary cell lines. Specifically, growth inhibitory effects of PCNA-I1 and PCNA-I2 were assessed using MTT staining in the following cells lines: 1) human cancer cell lines including LNCaP (androgen receptor […]), 22Rv1, DU-145, LAPC-4, and PC-3 (androgen receptor […]) prostate cancer cells; MCF-7 and T47D breast cancer cells; A375 and MDA-MB435 melanoma cells; 2) mouse cancer cell lines including TRAMP-C2RE3 prostate cancer cells, B16 and K1735 melanoma cells, UV2237 fibrosarcoma cells, and CT-26 colon cancer cells; 3) immortalized mouse lung cell lines and mouse endothelial cell lines; and 4) primary human cell lines including umbilical endothelial cells (HUVEC, PromoCell, Heidelberg, Germany), primary bone marrow mesenchymal stem cells (HuMSC, PromoCell), primary human mammary epithelial cells (HuBrEC, Lonza, Walkersville, Md.), primary human prostate epithelial cells (HuPrEC, Lonza), and primary mouse spleen lymphocytes (isolated in this laboratory), and primary mouse bone marrow stromal cells (isolated in this laboratory). PCNA-I1 and PCNA-I2 were either provided by the University of Cincinnati Drug Discovery Center (UC-DDC, Cincinnati, Ohio) or were purchased from Chembridge Co (San Diego, Calif.), ChemDiv (San Diego, Calif.), and/or Sigma-Aldrich (St Louis, Mo.).
(§2) Growth inhibitory effects of the compounds were assessed by MTT staining as described previously by Dong et al. in In Vitro Model for Intrinsic Drug Resistance: Effects of Protein Kinase C Activators on the Chemosensitivity of Cultured Human Colon Cancer Cells; Mol. Pharmacol. 1991; 39: 563-9. Briefly, cells were cultured and treated in their respective media. Cells were plated into 96-well plates at 1000 to 5000 cells/well. After an overnight incubation, the cells were treated for four days with various concentrations (up to 10 μM) of PCNA-I1 or PCNA-I2. The live cells were stained with MTT and cells in exponential growth phase were harvested by a one to three minute treatment with a 0.25% trypsin-0.02% EDTA solution. Flasks were tapped to detach the cells, RPMI 1640-10% FBS was added, and the cell suspensions were gently agitated to produce single-cell suspensions. The cell suspensions were washed and resuspended in medium with supplements specified for different cells. Only suspensions of single cells with a viability exceeding 95% (ascertained by trypan blue exclusion) were used.
(§3) IC50 values were derived from growth inhibition curves. Data for tumor cells are a mean of five to seven experiments. Data for primary cells are a mean of three experiments. […] Inhibition of cell growth was calculated using the formula: growth inhibition (%)=(1−A570 of treated/A570 of control)×100. IC50 (the concentration that inhibited cell growth by 50%) values were also determined. For evaluation of lymphocyte growth in suspension, an Alamar blue assay was performed, wherein freshly prepared mouse spleen lymphocytes were stimulated for 72 H with 2 ug/mL concanavalin A (Sigma Chemicals, St. Louis, […].). During the last 24 H, 20 μl/well of Alamar blue (Invitrogen, Carlsbad, Calif.) was added. The fluorescence intensity was measured at 530/580 (excitation/emission) in the FLUOstar Omega microplate reader (BMG LABTECH, Cary, N.C.).
(§4) Growth inhibitory effects of PCNA-I3, PCNA-I4, PCNA-I6, PCNA-I7, PCNA-I8, PCNA-I9 and PCNA-I10 were assessed in human prostate cancer cell lines. Specifically, growth inhibitory effects of PCNA-I3, PCNA-I4, PCNA-I6, PCNA-I7, PCNA-I8, PCNA-I9 and PCNA-I10 were assessed using MTT staining in LNCaP and PC-3 cells. […]

[2] = test system: PC-3 prostate cancer cells; test: Growth inhibition by MTT staining, PC-3; format: cell-based, Human; details: MTT
Description: as §1, §2, §3, §4

LNCaP cells [3] = test: MTT assay, PCNA-I1 and cisplatin alone or combined, LNCaP; format: cell-based, Human
Description: (§5) LNCaP or PC-3 cells were treated with a variety of concentrations of PCNA-I1 (0.1-10 μM) or cisplatin (0.1-10 μM) alone, or with a variety of concentrations of a combination of PCNA-I1 (0.1-10 μM) and cisplatin (0.1-10 μM) for four days. MTT assays were performed and IC50 values for PCNA-I1 and cisplatin were determined.

PC-3 cells = test: MTT assay, PCNA-I1 and cisplatin alone or combined, PC-3; format: cell-based, Human
Description: as §5

LNCaP cells [4] = test: DNA damage, apoptosis and cell cycle proteins by immunoblot, LNCaP; format: cell-based, Human
Description: Fluorescence-activated cell sorting (FACS) analysis was performed on both PC-3 cells and LNCaP cells using PCNA-I1. Specifically, cells were treated with 1 or 10 μM PCNA-I1 and sampled for the flow cytometry analysis at 24 H, 48 H, and 72 H. Expression of DNA damage and apoptosis-related proteins in PC-3 cells and LNCaP cells was also determined. Cisplatin, a well-known drug that induces DNA damage and apoptosis, was included in the experiment. LNCaP cells were treated for 6 H, 12 H, or 18 H with 10 μM PCNA-I1, 10 μM cisplatin, or both.
To further explore the differential effects of PCNA-I1 on LNCaP and PC-3 cells, the effects of PCNA-I1 and cisplatin on expression of cell cycle- and apoptosis-related proteins in the two cell lines were compared. LNCaP cells and PC-3 cells were treated with 1 μM PCNA-I1 and/or 5 μM cisplatin for 12 H, 18 H, or 24 H and cell lysates were sampled for immunoblotting.

[5] = test system: primary mouse spleen lymphocytes; test: Alamar blue assay of lymphocyte growth; format: cell-based; details: 2 μg/mL, 72 H; FIG. 2(A)
Description: as §3
The effects of PCNA-I1 on growth of tumor cells versus primary cells was also investigated. Specifically, the effects of PCNA-1I on the growth of primary cells was investigated using primary culture of mouse lymphocytes. An Alamar blue assay was performed with PC-3 cells as a positive control. Freshly prepared mouse spleen lymphocytes were stimulated for 72 H with 2 μg/mL of concanavalin A. During the last 24 H, 20 μL/well of alamar blue was added. The fluorescence intensity was measured at 530/580 (excitation/emission).

[6] = test system: LAPC-4 prostate cancer cells; test: Growth inhibition by MTT staining, LAPC-4; format: cell-based; details: LAPC4, 96 h, Human tumor cells, treated four days
Description: as §1, with “PCNA-I1 and PCNA-I2 were either provided by the University of Cincinnati Drug Discovery Center (UC-DDC, Cincinnati, Ohio) or were purchased from Chembridge Co (San Diego, Calif.), ChemDiv (San Diego, Calif.), and/or Sigma-Aldrich (St Louis, Mo.).” left out
(§6) IC50 values were derived from growth inhibition curves. […] Inhibition of cell growth was calculated using the formula: growth inhibition (%)=(1−A570 of treated/A570 of control)×100. […]

[7] = test system: MCF-7 breast cancer cells; test: Growth inhibition by MTT staining, MCF-7; format: cell-based; details: MCF7, 96 h, Human, tumor cells, treated four days
Description: as §1, with “PCNA-I1 and PCNA-I2 were either provided by the University of Cincinnati Drug Discovery Center (UC-DDC, Cincinnati, Ohio) or were purchased from Chembridge Co (San Diego, Calif.), ChemDiv (San Diego, Calif.), and/or Sigma-Aldrich (St Louis, Mo.).” left out
as §6

PCNA = molecular target: T1, PCNA (Homo sapiens, UniProt P12004); test: PCNA trimer formation assay, PC-3 cell lysate; format: biochemical; details: PC-3 lysate, 1 μM or 10 μM, 3 H, SDS-PAGE; FIG. 9(A)
T1 construct: endogenous PCNA was knocked down with transfection of PCNA-specific siRNA; endogenous in cells; host or cells: PC-3
Description: The effect of PCNA-I1, PCNA-I2, PCNA-I3, PCNA-I4, PCNA-I6, PCNA-I7, PCNA-I8, PCNA-I9, and PCNA-I10 on PCNA trimer formation was investigated by SDS-PAGE and immunoblotting. Specifically, a trimer formation assay was performed on both PC-3 cell lysates and purified recombinant protein. The trimer formation assay was performed on purified recombinant protein to determine whether the effects of PCNA compounds on the stable trimer formation required the participation of other cellular proteins.
Purified His-PCNA (0.1 μg/reaction) and PC-3 cell lysates (50 μg/reaction) were incubated for 3 H at room temperature in a reaction buffer (40 mM Tris-HCl, pH 7.5, 0.2 mg/mL BSA, 10 mM MgCl2, and 10% glycerol) in the absence or presence of DMSO (0.1% vehicle control) or PCNA-I1, PCNA-I2, PCNA-I3, PCNA-I4, PCNA-I6, PCNA-I7, PCNA-I8, PCNA-I9, or PCNA-I10 (1 μM or 10 μM). The reaction was stopped by addition of the SDS-PAGE sample buffer without a reducing agent. The samples were resolved in SDS-PAGE without boiling and analyzed by immunoblotting using PCNA antibody.

[8] = test system: DU145 prostate cancer cells; test: Growth inhibition by MTT staining, DU145; format: cell-based; details: DU-145, 96 h, Human tumor cells, treated four days
Description: as §1, with “PCNA-I1 and PCNA-I2 were either provided by the University of Cincinnati Drug Discovery Center (UC-DDC, Cincinnati, Ohio) or were purchased from Chembridge Co (San Diego, Calif.), ChemDiv (San Diego, Calif.), and/or Sigma-Aldrich (St Louis, Mo.).” left out
as §6

A375 melanoma cells = test: Growth inhibition by MTT staining, A375; format: cell-based; details: A-375, 96 h, Human, treated four days
Description: as §1, with “PCNA-I1 and PCNA-I2 were either provided by the University of Cincinnati Drug Discovery Center (UC-DDC, Cincinnati, Ohio) or were purchased from Chembridge Co (San Diego, Calif.), ChemDiv (San Diego, Calif.), and/or Sigma-Aldrich (St Louis, Mo.).” left out
as §6

Tumor Cells = test: Growth inhibition, mean over tumor cell lines; format: cell-based; details: most cell lines examined
Description: as §1, with “PCNA-I1 and PCNA-I2 were either provided by the University of Cincinnati Drug Discovery Center (UC-DDC, Cincinnati, Ohio) or were purchased from Chembridge Co (San Diego, Calif.), ChemDiv (San Diego, Calif.), and/or Sigma-Aldrich (St Louis, Mo.).” left out
as §6

GFP-PCNA = GFP-PCNA chromatin association, fluorescence microscopy; format: cell-based, Human; details: PC-3 transfected with pGFP-PCNA; 4 H, 0.5 μM PCNA-I1 or 2 μM PCNA-I2; FIG. 11
Description: Additionally, PC-3 cells were transfected for 24 H with pGFP-PCNA. The cells were then treated for 4 H with 0.5 μM of PCNA-I1 or 2 μM of PCNA-I2. The intact GFP-PCNA expressing cells were observed under a fluorescent microscope and recorded. After treatment with a buffer with 0.5% NP-40 buffer B, the cells were examined and recorded.

[9] = Homo sapiens, Table III, four days, mean of two experiments, read-out: IC50 Values of PCNA Inhibitors, LNCaP Cells
[10] = Homo sapiens, PC-3, 96 h, Table III, four days, mean of two experiments, read-out: IC50 Values of PCNA Inhibitors, PC-3 Cells

T1 sequence (P12004 whole entry): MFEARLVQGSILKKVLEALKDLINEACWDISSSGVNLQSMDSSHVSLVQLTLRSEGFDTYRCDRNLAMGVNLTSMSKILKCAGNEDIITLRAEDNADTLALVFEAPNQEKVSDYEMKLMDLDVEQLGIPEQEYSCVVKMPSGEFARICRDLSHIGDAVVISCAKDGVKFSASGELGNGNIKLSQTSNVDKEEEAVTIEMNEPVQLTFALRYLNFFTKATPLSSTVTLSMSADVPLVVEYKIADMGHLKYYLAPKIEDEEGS

Compound: O=C(N/N=C/c1ccc2ccccc2c1O)c1sc2ccccc2c1O [PCNA-I7]
- IC50 [1, 9]: 2200 nM
- IC50 [2, 10]: 3600 nM

Compound: Cc1ccc2[nH]c(=O)c(/C=N/NC(=O)c3ccccc3)c(O)c2c1 [PCNA-I6]
- IC50 [1, 9]: > 10000 nM
- IC50 [2, 10]: > 10000 nM

Compound: C/C(=N\NC(=O)c1cccc(F)c1)c1ccc2ccccc2c1O [PCNA-I8]
- IC50 [1, 9]: 680 nM
- IC50 [2, 10]: 1000 nM

Compound: O=C(NNS(=O)(=O)c1ccc(Br)cc1)c1c(O)c2ccccc2[nH]c1=O [PCNA-I4]
- IC50 [1, 9]: 680 nM
- IC50 [2, 10]: 3000 nM

Compound: N.N.[Cl][Pt][Cl] [cisplatin, reference compound]
- IC50 (LNCaP cells [3]; MTT, four days, single agent, read-out: IC50 doses for cell growth inhibition, LNCaP, agent alone): 650 nM
- IC50 (LNCaP cells [3]; combined with 0.067 μM PCNA-I1, read-out: Cisplatin concentration giving 50% inhibition in combination, LNCaP): 300 nM
- IC50 (PC-3 cells; MTT, four days, single agent, read-out: IC50 doses for cell growth inhibition, PC-3, agent alone): 450 nM
- IC50 (PC-3 cells; combined with 0.08 μM PCNA-I1, read-out: Cisplatin concentration giving 50% inhibition in combination, PC-3): 300 nM
- Expression of retinoblastoma (Rb) and cyclin D1 (LNCaP cells [4]; LNCaP and PC-3, 1 μM PCNA-I1 and/or 5 μM cisplatin, 12-24 H): moderately downregulated expression of cell cycle-regulating proteins
- Phosphorylation of p53, single agent (LNCaP cells [4]; LNCaP, 10 μM): induced
- Expression of p21 protein (LNCaP cells [4]; LNCaP, 10 μM PCNA-I1 and/or 10 μM cisplatin): enhanced expression of p21 protein at 6 H and 12 H
- PARP cleavage, single agent (LNCaP cells [4]; LNCaP, 10 μM alone): induced PARP cleavage
- DNA double strand break (γH2AX induction), single agent (LNCaP cells [4]; LNCaP, 10 μM alone, 6-18 H, FIG. 17(A)): induced moderate double strand break (DSB) of DNA

Compound: concanavalin A [reference compound]
- Stimulation of lymphocyte growth [5]: about 3.5 fold

Compound: O=C(N/N=C/c1ccc2ccccc2c1O)c1cccc(Cl)c1 [PCNA-I3]
- IC50 [1, 9]: 260 nM
- IC50 [2, 10]: 440 nM

Compound: O=C(NNC(=O)c1c(O)c2ccccc2[nH]c1=O)c1ccccc1[N+](=O)[O-] [PCNA-I10]
- IC50 [1, 9]: 2200 nM
- IC50 [2, 10]: > 10000 nM

Compound: C/C(=N\NC(=O)c1ccccc1O)c1ccc2ccccc2c1O [PCNA-I9]
- IC50 [1, 9]: 710 nM
- IC50 [2, 10]: 2200 nM

Compound: O=C(N/N=C/c1c(O)ccc2ccccc12)c1ccn[nH]1 [PCNA-I2]
- IC50 [6]: 1790 nM
- IC50 [7]: 1010 nM
- Portion of PCNA in the trimer form (PCNA): significantly elevated
- IC50 [8]: 1190 nM
- IC50 ([1]; Table II, Human tumor cells, treated four days, mean of five to seven experiments, read-out: IC50 Values, LNCaP): 560 nM
- IC50 (A375 melanoma cells): 3750 nM
- IC50 ([2]; 96 h, Table II, Human tumor cells, treated four days, mean of five to seven experiments, read-out: IC50 Values, PC-3): 970 nM
- Potency relative to PCNA-I1 (Tumor Cells): about three to five times less potent than PCNA-I1
- Level of chromatin-associated GFP-PCNA (GFP-PCNA): reduced the level of chromatin-associated GFP-PCNA
- Total intensity of GFP-PCNA (GFP-PCNA): did not significantly alter the total intensity of GFP-PCNA

From patent publication US9895363B2, “Methods for modulating function of proliferating cell nuclear antigen (PCNA) and treating cancer with PCNA-targeting compounds” (University of Cincinnati, priority 2010, dated 2018)
